Results on four compounds are retold here after US4104384A, “1-(2'-Aroyl eth-1'yl) 2-(4"-acetamido piperazine-1"yl methyl) benzimidazoles and their therapeutical applications” (priority 1975, dated 1978).

The subject of series [1] is bronchoconstriction caused by acetylcholine. Nature of the series: Anticholinergic and antibronchoconstrictive: bronchoconstriction by intravenous acetylcholine, Konzett's method. Format: in vivo. The note with it: Cavia porcellus, guinea-pig, read-out: Percentage inhibition of the bronchoconstriction. An excerpt:
Injected intravenously or intraduodenally, the compounds of formula (I) are capable of opposing bronchoconstriction caused in a guinea-pig by intravenous injection of acetylcholine and evaluated by Konzett's method.

A further series has as its system stress ulcers. Kind of series: Anti-ulcerous properties: ulcerations in rat under stress for 7 hours, oral. Format: in vivo. The note with it: po, read-out: Percentage reduction of stress ulcers.
For series [2], the system named is uterine horn of a female rabbit. Kind of series: Spasmolytic in vivo: contractions of the uterine horn caused by electric stimulation. The note with it: 53 mg/kg/i.d. As to the method: (§1) The compounds of formula (I), administered intraduodenally are capable of reducing the contractions of the jejunal ansa of a rabbit, caused by electric stimulation.
The same test was studied with the uterine horn of a female rabbit.
For example, compound No 73.0442, administered at a dose of 53 mg/kg/i.d. reduces by 85 % for more than an hour, the contractions of the uterine horn of a female rabbit caused by electric stimulation.

The next series has as its system jejunal ansa of a rabbit. Kind of series: Spasmolytic in vivo: contractions of the jejunal ansa caused by electric stimulation.
From the text: as §1

Series [3] is described as follows: Acute toxicity, lethal dose 50. The note with it: mouse, in vivo, po, read-out: Lethal dose 50 (mouse) / DL 50 (mouse) (converted).
The subject of another series is gastric secretion. Kind of series: Gastric antisecretory properties: gastric secretion after Shay ligature, intraduodenal. It is filed as in vivo. The note with it: intraduodenal, rat, read-out: Reduction of volume of gastric secretion. An excerpt:
Administered intraduodenally to a rat, the compounds of formula (I) are capable of reducing gastric secretion measured after Shay ligature.

A further series deals with painful stretchings. Nature of the series: Analgesic: painful stretchings following intraperitoneal injection of acetic acid. Format: in vivo. The note with it: po, mouse, read-out: Percentage diminution painful stretchings. An excerpt: The compounds of formula (I), administered orally to a mouse, are capable of reducing the number of painful stretchings following intraperitioneal injection of acetic acid.

A further series relates to Shay's ulcer. Nature of the series: Anti-ulcerous properties: ulceration caused by ligature of the pylorus (Shay's ulcers), intraduodenal. Format: in vivo. The note with it: rat, read-out: Percentage reduction of Shay's ulcer. The source says:
Furthermore, the compounds of formula (I) administered intraduodenally reduce the ulceration area caused by ligature of the pylorus of a rat (Shay's ulcers).

In another series the test system is sub-plantar oedema. Kind of series: Anti-inflammatory: sub-plantar oedema caused by carragenine. Format: in vivo. The note with it: po; rat, 50 mg/kg/p.o.; read-out: Percentage reduction of sub-plantar oedema.
A further series deals with arterial pressure. Nature of the series: Anti-hypertensive: arterial pressure in genetically hyperstressed vigil rats (S.H.R.). It is filed as in vivo, rat. The note with it: 4 hours. As to the method:
The compounds of formula (I) are capable, 4 hours after their oral injection, of bringing the arterial pressure down to normal in genetically hyperstressed vigil rats (S.H.R.).

In the next series the test system is volume of urine emitted. Nature of the series: Diuretic: volume of urine emitted. To be noted: po; rat, urine volume for 6 hours following administration; read-out: DE 50 (diuretic). It is filed as in vivo. As to the method: The compounds of formula (I), administered orally to a rat, increase the volume of urine emitted, relative to controls, the volume being measured for the 6 hours following administration.

Structures are written as SMILES.

Turning to `CC(C)NC(=O)CN1CCN(Cc2nc3ccccc3n2CCC(=O)c2ccccc2)CC1` [73 0442], in series [1] (intraduodenal, i.d., 25 mg/kg), the inhibition in vivo at 25 mg/kg turned out to be 100%. Moreover, the inhibition in vivo at 5.2 mg/kg in the series on stress ulcers (5.2 mg/kg/p.o.) came to 99%. In series [2], the “reduction of the contractions of the uterine horn for more than an hour” value came to 85%. Also, the “Diminution of contractions of the jejunum for more than an hour” value in the series with jejunal ansa of a rabbit (26.5 mg/kg/i.d.) is on record as 67%. Besides, the LD50 in series [3] is 798 mg/kg. For the same compound, in the series on gastric secretion (2.1 mg/kg/i.d.), the inhibition in vivo at 2.1 mg/kg was found to be 68%. The inhibition in vivo at 100 mg/kg in the series with painful stretchings (100 mg/kg/p.o.) was found to be 80%. In the series with Shay's ulcer (7.6 mg/kg/i.d.), the inhibition in vivo at 7.6 mg/kg came out at 88%.

For the compound `CCN(CC)C(=O)CN1CCN(Cc2nc3ccccc3n2CCC(=O)c2ccccc2)CC1` [74 0184], the inhibition in vivo at 4 mg/kg in [1] (iv, i.v., 4 mg/kg) came out at 100%. Moreover, the inhibition in vivo at 50 mg/kg came out at 65% with sub-plantar oedema and 63% in the series with painful stretchings (50 mg/kg/p.o.). Besides, the inhibition in vivo at 7.4 mg/kg with stress ulcers (7.4 mg/kg/p.o.) and in the series with Shay's ulcer (7.4 mg/kg/i.d.) was 100% in each case. Besides, the “Diminution of contractions of the jejunum for more than an hour” value in the series on jejunal ansa of a rabbit (14.9 mg/kg/i.d.) came out at 39%. Further, the LD50 in series [3] was 1300 mg/kg. The inhibition in vivo at 1.5 mg/kg in the series with gastric secretion (1.5 mg/kg/i.d.) came out at 77%.

With `CC(C)NC(=O)CN1CCN(Cc2nc3ccccc3n2CCC(=O)c2ccc([N+](=O)[O-])cc2)CC1` [74 0747], in the series on arterial pressure (150 mg/kg/p.o.), the “arterial pressure brought down to normal” value was 4 animals out of 7. Besides, the LD50 in [3] is 2200 mg/kg.

Regarding `COc1ccccc1C(=O)CCn1c(CN2CCN(CC(=O)NC(C)C)CC2)nc2ccccc21` [75 0011], the ED50 in the series on volume of urine emitted is 1 mg/kg. The inhibition in vivo at 20 mg/kg in the series on stress ulcers (20 mg/kg/p.o.) was 51%. For the same compound, the “arterial pressure brought down to normal” value in the series on arterial pressure (10 mg/kg/p.o.) is reported as 4 animals out of 7. Besides, the LD50 in [3] is 120 mg/kg. Besides, in the series on gastric secretion (25 mg/kg/i.d.), the inhibition in vivo at 25 mg/kg is 75%. In the series on Shay's ulcer (40 mg/kg/i.d.), the inhibition in vivo at 40 mg/kg was found to be 78%.
